# Laboratory results as given in EP0623339B1, “Use of 4-,4- and 5-, or 4- and 6-substituted derivatives of resorcin in cosmetic or dermopharmaceutical compositions for depigmentation” (L'OREAL, priority 1993, dated 1994).
# Test system: tyrosinase de champignons
# Test: in vitro inhibition test of tyrosinase activity (dopachrome formation followed at 475 nm)
# Format: biochemical
# Details: lowering of maximal dopachrome formed (OD 475 nm at plateau) vs. no inhibitor; inhibitor at 50 % molaire relative to tyrosine; pH = 6,5; 25°C
# Excerpt: Certains des composés de formule générale (I) ont été étudiés comparativement à l'hydroquinone à quantité molaire équivalente dans le test d'inhibition in vitro de l'activité de la tyrosinase.
# Selon ce test on suit par spectrométrie visible à 475 nm la quantité de dopachrome formée au cours de la chaîne de réactions de transformation de la tyrosine en mélanines. Ces réactions sont catalysées in vitro par la tyrosinase de champignons, en présence d'un co-substrat réducteur (par exemple la L-dopa en petite quantité) pour initier la réaction d'hydroxylation de la L-tyrosine en L-dopa, laquelle est ensuite oxydée catalytiquement en dopaquinone puis en dopachrome, produit intermédiaire avant les réactions d'oxydation non enzymatiques aboutissant à la formation des mélanines.
# On mesure donc la concentration en dopachrome formé au cours du temps en présence et en absence de l'inhibiteur. […]
# On exprime l'effet d'inhibition par l'abaissement de la quantité maximale de dopachrome formée (valeur de densité optique à 475 nm lue au plateau de la courbe) par rapport à la quantité obtenue en l'absence d'inhibiteur. […]
# • cuve de référence : 3 ml de A • cuve d'essai : 1 ml de B 0,1 ml de C 1,85ml de A + E • homogénéiser et équilibrer à 25°C • ajouter 0,05 ml de D • mélanger rapidement et observer la cinétique par la mesure de l'absorbance à 475 nm en fonction du temps.
structure (smiles),measurement,value
Oc1ccc(O)cc1 [hydroquinone],% d'inhibition,-33%
